# Data taken from ChEMBL document CHEMBL1201862, “PubChem BioAssay data set” (2004).
# Active and inactive are the calls of the source.
# Key:
# [1] = general mammalian cell viability loss – activator set, cherry-pick, cytotoxicity control for miR-122 modulator project, dose response (AID 720690); assay type: functional, cell-based;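 note: HEK293T human cells scored for general mammalian cytotoxicity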
# [2] = A Cell Based Secondary Assay To Explore Cytotoxicity of Compounds that Sensitize Mycobacterium Tuberculosis to Beta-Lactam Antibiotics.; assay type: functional
# H9c2 = assay: cells; assay type: functional, cell-based; settings: Rattus norvegicus, H9c2, Myocardium;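 note: confirmatory concentration-response retest of ultra-high-throughput screening hits for modulation of myocardial damage; cell death induced by hydrogen peroxide oxidative stress; compound pretreatment for 60 min then peroxide exposure for 2 h; potency is for protecting the cells against peroxide damage rather than for killing them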
# Leucine aminopeptidase = target: T1, Leucine aminopeptidase (Plasmodium falciparum 3D7, UniProt Q8IL11); assay: P. falciparum M17LAP inhibitors, primary screen, biochemical, fluorogenic H-Leu-NHMec substrate, 1536-well (AID 1619); assay type: functional
# T1 sequence (Q8IL11 whole entry): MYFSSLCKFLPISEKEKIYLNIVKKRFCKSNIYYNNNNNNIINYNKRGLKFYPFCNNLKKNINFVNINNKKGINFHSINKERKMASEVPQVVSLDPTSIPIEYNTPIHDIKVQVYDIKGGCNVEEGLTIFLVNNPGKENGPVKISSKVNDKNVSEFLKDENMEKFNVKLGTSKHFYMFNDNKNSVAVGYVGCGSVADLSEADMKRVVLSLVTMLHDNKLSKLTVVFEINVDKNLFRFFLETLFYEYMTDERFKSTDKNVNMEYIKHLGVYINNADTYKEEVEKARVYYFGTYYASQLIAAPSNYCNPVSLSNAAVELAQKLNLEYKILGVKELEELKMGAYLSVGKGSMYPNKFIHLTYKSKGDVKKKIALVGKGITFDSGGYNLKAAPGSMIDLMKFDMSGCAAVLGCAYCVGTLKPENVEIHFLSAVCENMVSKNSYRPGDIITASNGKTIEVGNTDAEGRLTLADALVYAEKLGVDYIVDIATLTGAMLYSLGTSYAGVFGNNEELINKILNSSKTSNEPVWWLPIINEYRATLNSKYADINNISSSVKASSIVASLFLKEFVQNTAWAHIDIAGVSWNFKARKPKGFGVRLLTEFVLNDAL
# [3] = HepG2 cell cytotoxicity, dose response, cytotoxicity control for non-replicating M. tuberculosis project (AID 489018); assay type: functional; settings: Mycobacterium tuberculosis
# [4] = Luminescence Cell-Based Dose Response HTS to Identify Inhibitors of 5'UTR Stem-Loop Driven Prion Protein mRNA Translation in H4 Neuroglioblastoma Cells. [Related pubchem assays: 1827 (Project Summary), 1813 (Primary HTS)]; assay type: functional
# cells = assay type: functional
# [5] = THP-1 cell cytotoxicity, dose response, cytotoxicity control for non-replicating M. tuberculosis project (AID 489025); assay type: functional
# [6] = alpha-synuclein stem-loop luciferase translation blockers – H4 neuroglioma cells, luminescence, confirmation (AID 1988); assay type: functional, cell-based
# [7] = luciferase reporter signal suppression in cells – H4 neuroglioma cells, luminescence, dose response (AID 1990); assay type: functional, cell-based
# [8] = target: T2, Voltage-gated N-type calcium channel alpha-1B subunit/Amyloid beta A4 precursor protein-binding family A member 1 (Homo sapiens, UniProt Q00975+Q02410); assay type: protein assay
# [9] = target: T2, Voltage-gated N-type calcium channel alpha-1B subunit/Amyloid beta A4 precursor protein-binding family A member 1; assay type: protein assay; remark: listed apart in the source
# [10] = target: Voltage-dependent T-type calcium channel subunit alpha-1H (Homo sapiens, UniProt O95180); assay type: functional;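 note: channel activity triggered by adding a high calcium stimulation buffer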
# Coagulation factor XII = target: T3, Coagulation factor XII (Homo sapiens, UniProt P00748); assay type: functional;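 note: activated factor XIIa alpha cleaving a fluorogenic AMC peptide substrate; inhibitor potency from loss of enzyme activity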
# T3 sequence (P00748 whole entry): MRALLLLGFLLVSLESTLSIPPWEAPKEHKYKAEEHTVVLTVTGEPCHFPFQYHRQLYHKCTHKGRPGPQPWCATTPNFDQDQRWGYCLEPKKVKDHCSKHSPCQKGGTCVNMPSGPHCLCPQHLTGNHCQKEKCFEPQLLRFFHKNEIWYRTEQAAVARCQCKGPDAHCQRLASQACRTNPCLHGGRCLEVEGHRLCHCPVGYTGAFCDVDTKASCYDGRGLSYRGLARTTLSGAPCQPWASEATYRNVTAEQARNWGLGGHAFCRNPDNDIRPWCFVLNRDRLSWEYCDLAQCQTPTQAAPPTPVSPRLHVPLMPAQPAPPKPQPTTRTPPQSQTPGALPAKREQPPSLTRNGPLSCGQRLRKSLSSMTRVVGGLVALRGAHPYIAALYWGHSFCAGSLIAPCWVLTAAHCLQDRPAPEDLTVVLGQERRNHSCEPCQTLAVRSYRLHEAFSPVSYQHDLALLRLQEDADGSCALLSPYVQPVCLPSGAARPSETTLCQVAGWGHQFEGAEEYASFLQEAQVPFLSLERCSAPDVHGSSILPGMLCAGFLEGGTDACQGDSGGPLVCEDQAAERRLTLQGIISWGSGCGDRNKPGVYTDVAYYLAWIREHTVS
# [11] = target: Eukaryotic translation initiation factor 4E (Mus musculus, UniProt P63073); assay: blockers of eIF4G binding by eIF4E – biochemical, TR-FRET, dose response (AID 855); assay type: functional;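 note: potency for disrupting eIF4E binding to eIF4GI seen as loss of FRET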
# [12] = off-target signal loss in HeLa-CEM21 co-culture – HeLa F-luc CTL cells, cherry-picked, counter-screen for HIV-1 Env fusion inhibitor project, dose response (AID 652040); assay type: functional, cell-based;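 note: potency for signal decrease marking cytotoxic or nonspecific inhibition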
# [13] = HIV-1 AD8 envelope cell-cell fusion blockers – cherry-pick, dose response (AID 652062); assay type: functional, cell-based;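 note: luciferase signal from cell-cell fusion driven by HIV-1 clade B AD8 Env; potency is for inhibitors of fusion seen as a drop in luminescence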
# Prothrombin = Prothrombin (Homo sapiens, UniProt P00734); assay: Thrombin 1536 HTS Dose Response Confirmation. [Related pubchem assays: 1046 (Thrombin 1536 HTS; hits were confirmed in this assay)]; assay type: functional
# Protein RecA = target: T4, Protein RecA (Mycobacterium tuberculosis, UniProt P9WHJ3); assay: Fluorescence Cell-Free Homogeneous Dose Retest to Identify Inhibitors of RecA-Intein Splicing Activity. [Related pubchem assays (depositor defined):AID2097, AID2223, AID489010, AID492950]; assay type: functional
# T4 sequence (P9WHJ3 whole entry): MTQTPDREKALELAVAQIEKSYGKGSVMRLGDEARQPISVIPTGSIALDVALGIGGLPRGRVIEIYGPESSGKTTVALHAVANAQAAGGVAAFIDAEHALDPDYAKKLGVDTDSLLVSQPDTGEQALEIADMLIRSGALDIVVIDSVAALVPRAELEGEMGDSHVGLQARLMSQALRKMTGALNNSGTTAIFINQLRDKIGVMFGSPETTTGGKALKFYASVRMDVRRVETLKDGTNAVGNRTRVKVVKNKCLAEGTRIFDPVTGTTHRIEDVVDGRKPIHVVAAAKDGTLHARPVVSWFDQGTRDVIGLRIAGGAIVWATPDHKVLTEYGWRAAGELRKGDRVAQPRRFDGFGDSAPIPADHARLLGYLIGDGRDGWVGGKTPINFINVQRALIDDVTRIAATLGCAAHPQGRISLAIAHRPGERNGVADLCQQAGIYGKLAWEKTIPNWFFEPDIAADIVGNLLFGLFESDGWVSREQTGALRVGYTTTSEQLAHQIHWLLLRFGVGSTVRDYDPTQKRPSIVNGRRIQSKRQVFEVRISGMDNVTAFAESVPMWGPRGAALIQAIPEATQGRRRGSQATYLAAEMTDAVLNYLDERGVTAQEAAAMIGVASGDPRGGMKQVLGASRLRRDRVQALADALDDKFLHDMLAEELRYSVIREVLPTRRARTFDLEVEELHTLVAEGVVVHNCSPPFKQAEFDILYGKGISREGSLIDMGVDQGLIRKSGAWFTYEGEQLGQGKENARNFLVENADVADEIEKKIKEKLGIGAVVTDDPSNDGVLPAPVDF
# [14] = target: T5, Replicative DNA helicase DnaB (Mycobacterium tuberculosis, UniProt P9WMR3); assay: DnaB intein splicing inhibitors, dose response, biochemical, cell-free fluorescence (AID 449749); assay type: functional
# T5 sequence (P9WMR3 whole entry): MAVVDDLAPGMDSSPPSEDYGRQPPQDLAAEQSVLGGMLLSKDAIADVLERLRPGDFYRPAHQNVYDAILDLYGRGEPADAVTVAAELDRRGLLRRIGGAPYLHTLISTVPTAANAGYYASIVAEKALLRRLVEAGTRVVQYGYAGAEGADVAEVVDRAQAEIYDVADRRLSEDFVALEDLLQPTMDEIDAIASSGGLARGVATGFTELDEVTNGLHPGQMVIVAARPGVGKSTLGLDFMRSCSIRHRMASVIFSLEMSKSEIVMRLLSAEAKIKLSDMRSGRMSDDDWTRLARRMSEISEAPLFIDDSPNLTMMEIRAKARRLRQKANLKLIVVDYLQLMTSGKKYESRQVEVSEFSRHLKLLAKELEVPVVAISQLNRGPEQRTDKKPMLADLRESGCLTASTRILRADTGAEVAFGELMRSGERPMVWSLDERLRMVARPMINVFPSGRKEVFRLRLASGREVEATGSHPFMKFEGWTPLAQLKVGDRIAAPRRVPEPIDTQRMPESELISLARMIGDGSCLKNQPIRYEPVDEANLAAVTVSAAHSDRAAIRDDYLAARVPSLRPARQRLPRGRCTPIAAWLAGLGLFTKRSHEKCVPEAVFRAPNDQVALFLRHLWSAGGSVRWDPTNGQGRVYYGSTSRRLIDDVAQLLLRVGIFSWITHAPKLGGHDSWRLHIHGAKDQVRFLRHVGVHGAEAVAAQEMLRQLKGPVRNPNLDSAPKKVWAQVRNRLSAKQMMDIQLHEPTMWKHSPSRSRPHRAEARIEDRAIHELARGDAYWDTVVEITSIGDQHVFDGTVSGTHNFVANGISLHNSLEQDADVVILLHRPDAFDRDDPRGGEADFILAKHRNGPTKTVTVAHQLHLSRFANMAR
# [15] = activation of miR-122 Renilla sensor silencing – cell-based, Huh7 psiCHECK-miR122, Renilla luciferase, cherry-picked, dose response (AID 651956); assay type: functional;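 note: huh7 hepatoma cells stably carrying a psiCHECK-2 miR-122 sensor plasmid; renilla luciferase signal reporting endogenous miR-122 activity after 48 h compound exposure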
# [16] = viability of PTEN-deleted HCT116 cells – cell-based, HCT116 PTEN knockout, dose response (AID 1047); assay type: functional;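 note: HCT116 colon tumor cells with PTEN knocked out; cells exposed to compound for 60 hours before readout; potency for loss of cell viability measured by luminescence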
# [17] = viability of HCT116 lacking mutant beta-catenin – cell-based, human colon tumor, dose response (AID 1045); assay type: functional;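 note: HCT116 colon tumor cells with beta catenin knocked out; cells exposed to compound for 60 hours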
# T2 sequence (Q00975 whole entry): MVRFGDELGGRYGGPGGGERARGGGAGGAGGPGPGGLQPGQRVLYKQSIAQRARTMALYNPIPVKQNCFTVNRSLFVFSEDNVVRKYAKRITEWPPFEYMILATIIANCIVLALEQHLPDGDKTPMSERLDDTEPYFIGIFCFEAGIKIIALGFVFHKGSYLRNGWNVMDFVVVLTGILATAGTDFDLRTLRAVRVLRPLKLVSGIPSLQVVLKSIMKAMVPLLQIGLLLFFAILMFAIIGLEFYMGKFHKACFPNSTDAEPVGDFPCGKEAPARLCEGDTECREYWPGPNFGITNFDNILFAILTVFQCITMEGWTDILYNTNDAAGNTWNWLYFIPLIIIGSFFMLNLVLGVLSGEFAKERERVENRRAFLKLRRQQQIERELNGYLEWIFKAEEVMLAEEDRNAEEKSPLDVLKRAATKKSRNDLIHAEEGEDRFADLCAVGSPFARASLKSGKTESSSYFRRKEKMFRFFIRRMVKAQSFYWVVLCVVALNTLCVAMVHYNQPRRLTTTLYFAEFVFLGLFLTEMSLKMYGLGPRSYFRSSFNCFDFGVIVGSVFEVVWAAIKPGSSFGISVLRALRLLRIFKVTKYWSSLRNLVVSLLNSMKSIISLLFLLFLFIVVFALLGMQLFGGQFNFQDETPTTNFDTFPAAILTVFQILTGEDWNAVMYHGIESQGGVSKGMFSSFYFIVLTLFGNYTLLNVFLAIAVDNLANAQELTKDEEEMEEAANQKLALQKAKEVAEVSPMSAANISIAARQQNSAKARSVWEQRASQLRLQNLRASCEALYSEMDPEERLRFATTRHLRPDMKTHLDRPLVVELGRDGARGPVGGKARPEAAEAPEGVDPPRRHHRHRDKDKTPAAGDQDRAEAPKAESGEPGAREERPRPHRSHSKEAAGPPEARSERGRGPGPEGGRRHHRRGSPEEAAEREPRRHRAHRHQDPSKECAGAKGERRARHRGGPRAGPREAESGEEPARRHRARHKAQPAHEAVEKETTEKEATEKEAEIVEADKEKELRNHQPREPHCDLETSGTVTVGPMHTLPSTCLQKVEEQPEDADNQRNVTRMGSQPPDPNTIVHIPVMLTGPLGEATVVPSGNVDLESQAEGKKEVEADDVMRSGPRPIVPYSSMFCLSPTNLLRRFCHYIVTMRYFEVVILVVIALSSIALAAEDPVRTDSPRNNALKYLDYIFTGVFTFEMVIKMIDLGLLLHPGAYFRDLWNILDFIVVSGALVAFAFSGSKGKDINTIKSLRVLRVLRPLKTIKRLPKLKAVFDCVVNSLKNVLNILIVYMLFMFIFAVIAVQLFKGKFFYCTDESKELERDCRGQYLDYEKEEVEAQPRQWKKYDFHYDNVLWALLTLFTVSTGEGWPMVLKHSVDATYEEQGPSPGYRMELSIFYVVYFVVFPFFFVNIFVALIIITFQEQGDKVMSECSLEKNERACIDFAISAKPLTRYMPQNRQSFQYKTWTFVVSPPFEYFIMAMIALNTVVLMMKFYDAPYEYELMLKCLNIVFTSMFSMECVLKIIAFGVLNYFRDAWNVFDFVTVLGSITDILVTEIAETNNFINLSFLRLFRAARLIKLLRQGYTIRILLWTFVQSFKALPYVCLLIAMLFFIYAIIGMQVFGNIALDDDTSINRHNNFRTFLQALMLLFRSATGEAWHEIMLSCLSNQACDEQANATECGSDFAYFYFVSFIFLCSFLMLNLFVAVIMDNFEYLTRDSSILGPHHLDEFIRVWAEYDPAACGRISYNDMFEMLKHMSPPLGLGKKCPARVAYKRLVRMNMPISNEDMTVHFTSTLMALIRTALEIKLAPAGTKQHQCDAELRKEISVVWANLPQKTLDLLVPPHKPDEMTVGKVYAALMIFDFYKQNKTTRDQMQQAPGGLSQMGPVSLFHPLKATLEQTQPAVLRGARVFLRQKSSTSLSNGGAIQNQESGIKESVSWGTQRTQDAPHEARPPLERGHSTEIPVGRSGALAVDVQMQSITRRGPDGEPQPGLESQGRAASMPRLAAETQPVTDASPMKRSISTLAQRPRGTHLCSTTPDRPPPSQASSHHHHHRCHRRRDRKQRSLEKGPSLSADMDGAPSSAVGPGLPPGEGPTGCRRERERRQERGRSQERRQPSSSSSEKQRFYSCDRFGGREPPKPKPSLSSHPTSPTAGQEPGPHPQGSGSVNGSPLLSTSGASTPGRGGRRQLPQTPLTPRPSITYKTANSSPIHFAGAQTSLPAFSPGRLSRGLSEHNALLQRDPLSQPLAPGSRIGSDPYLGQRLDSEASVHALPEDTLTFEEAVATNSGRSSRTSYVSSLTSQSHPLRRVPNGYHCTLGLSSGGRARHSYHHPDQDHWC
# T2 sequence (Q02410 whole entry): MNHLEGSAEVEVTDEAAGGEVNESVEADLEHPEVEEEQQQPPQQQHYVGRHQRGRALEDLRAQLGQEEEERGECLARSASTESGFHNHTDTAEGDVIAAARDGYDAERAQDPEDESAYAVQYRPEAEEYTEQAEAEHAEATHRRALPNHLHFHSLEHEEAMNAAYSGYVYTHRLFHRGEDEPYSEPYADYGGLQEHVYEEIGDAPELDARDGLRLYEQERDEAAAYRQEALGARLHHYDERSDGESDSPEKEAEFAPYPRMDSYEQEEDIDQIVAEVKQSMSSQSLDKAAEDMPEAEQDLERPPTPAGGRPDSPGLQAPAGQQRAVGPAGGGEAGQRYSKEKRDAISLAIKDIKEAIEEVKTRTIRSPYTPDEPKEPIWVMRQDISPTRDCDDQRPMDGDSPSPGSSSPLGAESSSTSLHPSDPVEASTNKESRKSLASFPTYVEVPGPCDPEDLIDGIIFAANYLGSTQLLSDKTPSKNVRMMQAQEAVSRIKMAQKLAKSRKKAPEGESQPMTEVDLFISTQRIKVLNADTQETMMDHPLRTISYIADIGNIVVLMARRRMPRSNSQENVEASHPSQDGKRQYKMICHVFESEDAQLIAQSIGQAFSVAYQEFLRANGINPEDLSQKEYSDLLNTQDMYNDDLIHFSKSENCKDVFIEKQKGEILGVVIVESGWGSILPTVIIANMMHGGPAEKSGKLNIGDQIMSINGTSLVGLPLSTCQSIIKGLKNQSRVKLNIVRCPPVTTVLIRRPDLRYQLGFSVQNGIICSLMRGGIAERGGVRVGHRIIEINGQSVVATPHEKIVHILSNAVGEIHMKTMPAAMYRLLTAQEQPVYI
# Sequence of Eukaryotic translation initiation factor 4E (P63073 whole entry, the tested form may be a part): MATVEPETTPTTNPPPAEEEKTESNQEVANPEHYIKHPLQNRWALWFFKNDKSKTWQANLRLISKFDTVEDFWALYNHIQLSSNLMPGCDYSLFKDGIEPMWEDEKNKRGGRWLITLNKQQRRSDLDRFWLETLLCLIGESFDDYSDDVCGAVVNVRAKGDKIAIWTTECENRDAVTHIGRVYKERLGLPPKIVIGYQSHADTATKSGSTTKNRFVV
structure (smiles),measurement,setting,value
C[C@@H]1CN([C@@H](C)CO)C(=O)c2cccc(NC(=O)c3ccc(-c4nccs4)cc3)c2O[C@H]1CN(C)Cc1ccc2c(c1)OCO2,AC50,[1],25.6 µM (active)
CCOC(=O)[C@H]1[C@H]2COc3ccc(Br)cc3[C@@H]2N2C(=O)c3cc(OC)c(OC)cc3NC(=O)[C@@]12C,CC50,[2],> 40 µM (active)
same,IC50,H9c2,15.5 µM (active)
COc1ccc(CC(CC(=O)O)C(=O)Nc2ccccc2)cc1 (stereo not given),IC50,Leucine aminopeptidase,47.2 µM (active)
COc1ccc(-c2nn(-c3ccccc3)cc2C(=O)Nc2nccs2)cc1OC,CC50,[2],32 µM (active)
CCCOc1ccc(CCC(=O)N/N=C/c2ccc([N+](=O)[O-])o2)cc1,CC50,[3],19.3 µM (active)
same,EC50,[4],> 120 µM (not active)
same,IC50,cells,5.03 µM (active)
same,CC50,[5],13.1 µM (active)
same,EC50,[6],> 120 µM (not active)
same,EC50,[7],> 120 µM (not active)
Cc1ccc(S(=O)(=O)Nc2nc3c(s2)C(=O)CC(C)(C)C3)cc1,IC50,Leucine aminopeptidase,94.4 µM (active)
Cc1cccc(NC(=S)NC2CCCC2)n1,IC50,[8],7.9 µM (active)
same,IC50,[9],> 50 µM (inactive)
COc1ccc(NC(=O)c2ccco2)cc1NC(=O)c1cccc(OC(C)C)c1,EC50,[10],8.24 µM (active)
CC1(C)C2CC=C(/C=N/n3cnnc3)C1C2 (stereo not given),IC50,Coagulation factor XII,> 50 µM (inactive)
O=C(NCc1ccco1)c1scc2c1OCCO2,IC50,Coagulation factor XII,> 50 µM (inactive)
Nc1ccc(S(=O)(=O)N2CCCc3ccccc32)cc1,IC50,[11],> 64 µM (inactive)
Cn1c(SCc2nc(-c3ccc(Cl)cc3)no2)nnc1-c1cccs1,AC50,[12],3.1 µM (active)
same,AC50,[13],9.06 µM (active)
Cc1ccc(C)c(S(=O)(=O)NCCCN2CCOCC2)c1,IC50,Prothrombin,> 50 µM (not active)
O=C1NC(=O)N(Cc2ccccc2)C(=O)/C1=C/c1cnn(-c2ccccc2)c1,IC50,[8],14.9 µM (active)
same,IC50,[9],> 50 µM (inactive)
CCCCCCCN(C(=O)CCl)c1ccccc1C,EC50,Protein RecA,0.893 µM (active)
same,CC50,[2],2.82 µM (active)
same,AC50,[14],7.86 µM (active)
CCCOc1cccc(C(=O)N(Cc2ccco2)C2CCS(=O)(=O)C2)c1 (stereo not given),IC50,Prothrombin,> 50 µM (not active)
CC(C)NC(=O)c1ccc(C(C)C)cc1,IC50,Prothrombin,> 50 µM (not active)
Fc1ccc(SCCc2ccccn2)cc1,IC50,Coagulation factor XII,> 50 µM (inactive)
CCc1cccc(NC(=O)C[S+]([O-])Cc2nc(-c3ccc(C)cc3)oc2C)c1 (stereo not given),EC50,[10],3.17 µM (active)
C/C=C/c1ccc2c(c1)O[C@@H](CN(C)CC1CCCC1)[C@H](C)CN([C@@H](C)CO)S2(=O)=O,AC50,[1],22.4 µM (active)
same,AC50,[15],42.1 µM (active)
O=C(NC1CCCCC1)N(Cc1ccccc1)Cc1ccco1,EC50,[10],3.68 µM (active)
CCOC(=O)c1c(NC(=S)NC(=O)c2ccc(Cn3cc(Cl)cn3)o2)sc2c1CCC(C)C2 (stereo not given),EC50,[16],5.87 µM (active)
same,EC50,[17],6.18 µM (active)
same,CC50,[2],12.2 µM (active)
Cc1ccc(C(=O)n2cnnc2N)cc1C,IC50,Prothrombin,1.87 µM (active)
O=C1CC(SCCc2nc3ccccc3[nH]2)C(=O)N1c1ccc(Cl)cc1 (stereo not given),EC50,[10],613 µM (active)
O=C(NCCc1csc(-c2ccc(C(F)(F)F)cc2)n1)c1cccs1,EC50,[10],4.14 µM (active)
CCCCCOC(=O)Nc1nnc(CCCCC)s1,IC50,Coagulation factor XII,> 50 µM (inactive)
